Data published in the NIST ThermoML archive (doi:10.1016/j.tca.2016.05.013).
Numbers after ± are expanded uncertainties.

Key:
[1] = refractive index (Na D-line) (dimensionless); mn = molality of the nth substance listed, in mol/kg; conditions: 86.8 kPa, Liquid, Standard Abbe refractometry, m2 = 0
[2] = 86.8 kPa, Liquid; for speed of sound: Frequency=3 MHz, Sing-around technique in a fixed-path interferometer; for mass density: Vibrating tube method
[3] = refractive index (Na D-line) (dimensionless); conditions: 86.8 kPa, Liquid, Standard Abbe refractometry

Structure (SMILES): O [water] + CCCCn1cc[n+](C)c1.O=C([O-])c1ccccc1O
- refractive index ([1]; 288.15 K): 1.3329 ± 0.004
- refractive index ([1]; 298.15 K): 1.3323 ± 0.004
- refractive index ([1]; 308.15 K): 1.3316 ± 0.004
- refractive index ([1]; 318.15 K): 1.3305 ± 0.004

Structure (SMILES): CCCCn1cc[n+](C)c1.O=C([O-])c1ccccc1O [1-butyl-3-methylimidazolium salicylate]
- speed of sound ([2]; 288.15 K): 1721.6 ± 2.4 m/s
- mass density ([2]; 288.15 K): 1155.72 ± 1.6 kg/m3
- speed of sound ([2]; 298.15 K): 1679.2 ± 2.4 m/s
- mass density ([2]; 298.15 K): 1148.81 ± 1.6 kg/m3
- speed of sound ([2]; 308.15 K): 1640.9 ± 2.4 m/s
- mass density ([2]; 308.15 K): 1142.02 ± 1.6 kg/m3
- speed of sound ([2]; 318.15 K): 1606.1 ± 2.4 m/s
- mass density ([2]; 318.15 K): 1135.41 ± 1.6 kg/m3
- refractive index ([3]; 288.15 K): 1.6503 ± 0.004
- refractive index ([3]; 298.15 K): 1.647 ± 0.004
- refractive index ([3]; 308.15 K): 1.6442 ± 0.004
- refractive index ([3]; 318.15 K): 1.6413 ± 0.004
